Measurements from ChEMBL document CHEMBL1201862, “PubChem BioAssay data set” (2004).
The source made the active and inactive calls.

Columns and labels:
[1] = tested on: H4; experiment: Luminescence Cell-Based Dose Response HTS to Identify Activators of 5'UTR Stem-Loop Driven Prion Protein mRNA Translation in H4 Neuroglioblastoma Cells. [Related pubchem assays: 1829 (Project Summary), 1814 (Primary HTS)]; type: functional; details: Homo sapiens
[2] = molecular target: SWI/SNF-related matrix-associated actin-dependent regulator of chromatin subfamily A member 2 (Homo sapiens, UniProt P51531); experiment: Luminescence-based cell-based high throughput dose response assay to identify activators of the function of SWI/SNF related, matrix associated, actin dependent regulator of chromatin, subfamily a, member 2 (SMARCA2, BRM).; type: functional
[3] = Luminescence Cell-Based Dose Response HTS to Identify Activators of Luciferase Translation or Activity in H4 […] Cells. [Related pubchem assays: 1829 (Project Summary), 1814 (Primary HTS)]; type: functional
[4] = Counterscreen for activators of the function of SWI/SNF related, matrix associated, actin dependent regulator of chromatin, subfamily a, member 2 (SMARCA2, BRM): Luminescence-based cell-based high throughput dose response assay to identify non-selective compounds using the VP16 reporter assay.; type: functional
[5] = molecular target: Prothrombin (Homo sapiens, UniProt P00734); experiment: Thrombin 1536 HTS Dose Response Confirmation. [Related pubchem assays: 1046 (Thrombin 1536 HTS; hits were confirmed in this assay)]; type: functional
[6] = Luminescence Cell-Based Dose Confirmation HTS to Identify Activators of 5'UTR Stem-Loop Driven Alpha-Synuclein mRNA Translation in H4 Neuroglioblastoma Cells. [Related pubchem assays: 1829 (Project Summary), 1814 (Primary HTS)]; type: functional
[7] = ARNT/TACC3 interaction disruptors, potency, confirmation, biochemical, AlphaScreen, cherry-picked samples (AID 651703); type: functional, Homo sapiens;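 also: His-tagged ARNT PAS-B domain paired with GST-TACC3 E629A dimer coactivator fragment; potency of inhibitors that break up the complex and lower AlphaScreen signal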
[8] = cells; type: functional
[9] = HEK293T cell cytotoxicity, dose response, cytotoxicity control for HIV Vif inhibitor project, cherry-picks (AID 652208); type: functional, cell-based
[10] = molecular target: T1, Streptokinase A (Streptococcus pyogenes serotype M1, UniProt P10520); experiment: S. pyogenes streptokinase expression inhibitors, potency, dose response, plasminogen activation absorbance, OD405 (AID 1914); type: functional, Streptococcus pyogenes M1 GAS;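 also: secreted streptokinase activity via plasminogen activation per viability signal from cell pellet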
T1 sequence (P10520 whole entry): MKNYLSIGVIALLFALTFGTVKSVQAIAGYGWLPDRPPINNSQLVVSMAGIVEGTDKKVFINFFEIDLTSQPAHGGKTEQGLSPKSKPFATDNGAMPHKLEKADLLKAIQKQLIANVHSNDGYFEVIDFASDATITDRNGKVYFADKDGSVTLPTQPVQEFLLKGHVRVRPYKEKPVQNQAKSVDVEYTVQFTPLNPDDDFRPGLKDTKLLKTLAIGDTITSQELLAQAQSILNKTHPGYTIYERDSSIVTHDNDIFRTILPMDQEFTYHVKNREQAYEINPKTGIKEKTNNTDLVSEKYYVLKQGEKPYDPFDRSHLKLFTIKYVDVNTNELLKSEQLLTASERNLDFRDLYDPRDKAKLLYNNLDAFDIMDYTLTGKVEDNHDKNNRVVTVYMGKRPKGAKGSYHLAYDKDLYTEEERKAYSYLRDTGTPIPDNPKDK

[11] = tested on: Streptococcus; experiment: Group A Streptococcus viability loss, dose response, counter-screen for streptokinase expression inhibitor project, luminescence, BacTiterGlo (AID 1915); type: functional, organism-based;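 also: potency for reduction of bacterial viability or growth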
[12] = tested on: Streptococcus sp. 'group A'; experiment: growth inhibition of control SK(-) GAS strain, dose response, counter-screen for streptokinase expression inhibitor project, luminescence, kanamycin, BacTiterGlo, confirmation (AID 1900); type: functional, organism-based
[13] = LMP1-driven NF-kB reporter inhibition, dose response, cell-based, luciferase reporter, luminescence, dry powder, set 2 (AID 624376); type: functional
[14] = HEK293 cell viability, dose response, counter-screen for EBV LMP1 inhibitor project, dry powder, set 2 (AID 624374); type: functional
[15] = molecular target: T2, ATP-dependent translocase ABCB1 (Homo sapiens, UniProt P08183); experiment: ABCG2 efflux pump inhibitor potency, dose response, Ig-MXP3 cells, JC-1, flow cytometry, set 2 (AID 504566); type: functional; details: read-out: EC50_MICROM_;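 also: flow cytometry median green fluorescence of retained JC-1 dye; potency of efflux pump inhibition measured as rising substrate retention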
T2 sequence (P08183 whole entry): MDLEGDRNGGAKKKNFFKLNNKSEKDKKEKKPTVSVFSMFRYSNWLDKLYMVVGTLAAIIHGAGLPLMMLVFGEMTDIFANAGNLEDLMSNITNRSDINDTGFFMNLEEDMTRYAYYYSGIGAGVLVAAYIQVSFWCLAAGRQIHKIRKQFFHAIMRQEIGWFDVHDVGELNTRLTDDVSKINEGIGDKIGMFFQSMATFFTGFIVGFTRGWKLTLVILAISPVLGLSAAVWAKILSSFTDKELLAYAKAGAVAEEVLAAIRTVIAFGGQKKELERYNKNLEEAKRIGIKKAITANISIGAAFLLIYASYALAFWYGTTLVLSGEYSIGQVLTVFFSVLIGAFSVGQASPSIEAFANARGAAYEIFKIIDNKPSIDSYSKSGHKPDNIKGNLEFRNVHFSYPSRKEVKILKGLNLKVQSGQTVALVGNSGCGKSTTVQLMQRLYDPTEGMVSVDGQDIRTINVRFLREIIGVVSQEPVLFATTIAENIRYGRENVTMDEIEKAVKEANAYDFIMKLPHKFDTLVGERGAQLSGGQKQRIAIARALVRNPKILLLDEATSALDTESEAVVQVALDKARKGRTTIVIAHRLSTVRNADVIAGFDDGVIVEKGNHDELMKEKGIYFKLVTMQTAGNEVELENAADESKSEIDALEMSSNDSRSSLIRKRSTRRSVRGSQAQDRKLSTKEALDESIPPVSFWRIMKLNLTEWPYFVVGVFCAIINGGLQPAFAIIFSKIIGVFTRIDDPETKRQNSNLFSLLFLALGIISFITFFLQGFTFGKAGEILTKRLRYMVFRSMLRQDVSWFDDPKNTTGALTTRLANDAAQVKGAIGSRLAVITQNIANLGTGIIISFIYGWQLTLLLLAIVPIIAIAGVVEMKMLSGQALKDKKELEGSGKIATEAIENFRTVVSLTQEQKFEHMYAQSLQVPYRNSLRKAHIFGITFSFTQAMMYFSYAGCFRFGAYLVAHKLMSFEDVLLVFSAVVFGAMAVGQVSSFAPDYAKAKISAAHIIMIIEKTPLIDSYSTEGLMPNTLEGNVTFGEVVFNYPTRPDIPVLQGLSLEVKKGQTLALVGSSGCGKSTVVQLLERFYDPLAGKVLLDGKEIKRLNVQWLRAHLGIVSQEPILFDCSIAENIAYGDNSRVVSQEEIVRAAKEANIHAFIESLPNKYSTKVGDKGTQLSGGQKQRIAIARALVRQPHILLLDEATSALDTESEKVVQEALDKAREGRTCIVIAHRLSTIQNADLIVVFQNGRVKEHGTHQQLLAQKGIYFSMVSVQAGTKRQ

[16] = molecular target: T2, ATP-dependent translocase ABCB1; experiment: ABCB1 efflux inhibitor potency, dose response, Jurkat-DNR cells, JC-1, flow cytometry, set 2 (AID 504569); type: functional; details: read-out: EC50_MICROM_;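 also: potency of pump inhibitors that raise cellular JC-1 green fluorescence up to the nicardipine level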
[17] = AlphaScreen signal interference compounds, dose response, artefact control for ARNT-TACC3 interaction inhibitor project, biochemical, luminescence, cherry-pick (AID 651705); type: functional;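 also: AlphaScreen bead proximity signal that flags compounds interfering with the detection technology; potency reflects signal decrease which marks the compound as an assay artifact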
[18] = molecular target: T3, Beta Lactamase (Pseudomonas aeruginosa, UniProt Q932Y6); experiment: VIM-2 metallo-beta-lactamase inhibitor potency, dose response, biochemical, epi-absorbance readout, selective inhibitors (AID 1919)
T3 sequence (Q932Y6 whole entry): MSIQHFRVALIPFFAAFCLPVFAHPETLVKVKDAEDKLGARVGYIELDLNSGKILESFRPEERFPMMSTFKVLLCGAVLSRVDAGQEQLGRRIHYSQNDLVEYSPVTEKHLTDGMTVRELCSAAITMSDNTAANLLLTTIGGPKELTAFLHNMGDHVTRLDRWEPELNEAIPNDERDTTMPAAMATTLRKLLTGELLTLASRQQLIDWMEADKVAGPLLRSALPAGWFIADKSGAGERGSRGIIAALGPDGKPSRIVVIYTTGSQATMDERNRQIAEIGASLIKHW

[19] = molecular target: T3, Beta Lactamase; experiment: VIM-2 inhibitor FRET-based artefact check, dose response, artefact control for selective VIM-2 inhibitor project, biochemical, FRET readout, CCF2 substrate (AID 1926)
[20] = molecular target: T4, Beta-lactamase (Pseudomonas aeruginosa, UniProt Q79MP6); experiment: […] counterscreen for selective VIM-2 inhibitors: dose response biochemical high throughput screening assay to identify inhibitors of IMP-1 metallo-beta-lactamase.
T4 sequence (Q79MP6 whole entry): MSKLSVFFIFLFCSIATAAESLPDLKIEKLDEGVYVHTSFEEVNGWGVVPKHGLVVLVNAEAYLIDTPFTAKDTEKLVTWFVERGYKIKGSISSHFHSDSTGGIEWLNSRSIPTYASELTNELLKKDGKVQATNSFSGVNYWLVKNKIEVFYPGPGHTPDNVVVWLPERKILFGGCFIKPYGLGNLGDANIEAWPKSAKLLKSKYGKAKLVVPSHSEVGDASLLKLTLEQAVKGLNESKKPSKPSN

[21] = molecular target: T5, Beta-lactamase (Salmonella choleraesuis (strain SC-B67), UniProt Q5J463); experiment: Epi-absorbance-based counterscreen for selective VIM-2 inhibitors: dose response biochemical high throughput screening assay to identify inhibitors of TEM-1 serine-beta-lactamase.
T5 sequence (Q5J463 whole entry): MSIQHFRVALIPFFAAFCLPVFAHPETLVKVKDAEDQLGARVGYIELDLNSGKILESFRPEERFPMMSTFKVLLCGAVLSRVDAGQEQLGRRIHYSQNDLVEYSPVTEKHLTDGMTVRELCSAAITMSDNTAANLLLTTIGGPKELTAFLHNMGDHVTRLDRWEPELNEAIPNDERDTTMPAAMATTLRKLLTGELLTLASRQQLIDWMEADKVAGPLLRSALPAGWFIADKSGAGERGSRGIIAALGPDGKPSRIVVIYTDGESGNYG

[22] = molecular target: T4, Beta-lactamase; experiment: IMP-1 metallo-beta-lactamase inhibitors, dose response, selectivity assay for VIM-2 inhibitor project, biochemical, epi-absorbance (AID 1920)
[23] = molecular target: Hepatocyte nuclear factor 4-alpha (Homo sapiens, UniProt P41235); type: functional, cell-based;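 also: biochemical luminescence-based dose-response counterscreen measuring inhibition of HNF4 dimerization, run alongside a screen for blockers of ABHD5–perilipin-5 interaction; split luciferase complementation of HNF4 fusion proteins in cell lysate measuring dimerization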
Hepatocyte nuclear factor 4-alpha, sequence (P41235 whole entry, the tested form may be a part): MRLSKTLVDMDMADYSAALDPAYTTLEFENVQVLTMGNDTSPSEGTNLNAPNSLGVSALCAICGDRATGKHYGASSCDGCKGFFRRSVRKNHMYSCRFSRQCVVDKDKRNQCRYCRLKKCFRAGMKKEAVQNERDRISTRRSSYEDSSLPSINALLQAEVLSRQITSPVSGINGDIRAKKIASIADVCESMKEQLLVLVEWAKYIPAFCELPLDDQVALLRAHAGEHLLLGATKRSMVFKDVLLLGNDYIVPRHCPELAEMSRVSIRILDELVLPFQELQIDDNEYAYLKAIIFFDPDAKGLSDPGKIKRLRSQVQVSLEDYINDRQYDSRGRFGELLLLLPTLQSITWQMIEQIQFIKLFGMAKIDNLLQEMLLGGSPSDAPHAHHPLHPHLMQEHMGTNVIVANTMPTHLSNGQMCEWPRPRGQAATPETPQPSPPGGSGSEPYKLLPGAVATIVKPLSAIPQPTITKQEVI

[24] = molecular target: Potassium voltage-gated channel subfamily KQT member 2 (Rattus norvegicus, UniProt O88943); experiment: KCNQ2 potassium channel inhibitors, dose response, cell-based, automated electrophysiology, set II, rat KCNQ2 (AID 588637); type: functional
Potassium voltage-gated channel subfamily KQT member 2, sequence (O88943 whole entry): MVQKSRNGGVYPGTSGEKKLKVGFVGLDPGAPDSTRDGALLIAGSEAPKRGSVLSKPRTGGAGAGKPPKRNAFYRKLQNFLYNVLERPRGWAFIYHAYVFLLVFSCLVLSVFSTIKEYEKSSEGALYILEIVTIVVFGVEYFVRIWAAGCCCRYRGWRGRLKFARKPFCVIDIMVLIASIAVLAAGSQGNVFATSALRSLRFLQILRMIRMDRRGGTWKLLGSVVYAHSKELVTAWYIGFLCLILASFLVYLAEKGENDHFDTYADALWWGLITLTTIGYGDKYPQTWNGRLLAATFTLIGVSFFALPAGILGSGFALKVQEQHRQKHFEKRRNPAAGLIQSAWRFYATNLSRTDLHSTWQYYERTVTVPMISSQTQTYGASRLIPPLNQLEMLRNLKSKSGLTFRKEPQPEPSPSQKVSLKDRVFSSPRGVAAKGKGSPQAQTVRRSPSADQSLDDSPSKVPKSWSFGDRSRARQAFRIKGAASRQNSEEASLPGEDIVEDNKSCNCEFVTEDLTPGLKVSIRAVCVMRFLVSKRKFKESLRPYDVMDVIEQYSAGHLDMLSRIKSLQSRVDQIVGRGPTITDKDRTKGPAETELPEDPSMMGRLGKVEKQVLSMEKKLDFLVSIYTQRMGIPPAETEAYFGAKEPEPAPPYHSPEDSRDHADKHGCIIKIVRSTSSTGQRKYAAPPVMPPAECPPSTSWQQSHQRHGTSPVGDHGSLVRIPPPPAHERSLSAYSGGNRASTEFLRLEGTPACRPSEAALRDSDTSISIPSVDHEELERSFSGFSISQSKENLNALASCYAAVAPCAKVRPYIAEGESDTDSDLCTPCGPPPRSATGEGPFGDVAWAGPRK

[25] = molecular target: Mu-type opioid receptor (Homo sapiens, UniProt P35372); type: functional, cell-based;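 also: U2OS cells with beta-arrestin recruitment to OPRM1 by beta-gal complementation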
Mu-type opioid receptor, sequence (P35372 whole entry): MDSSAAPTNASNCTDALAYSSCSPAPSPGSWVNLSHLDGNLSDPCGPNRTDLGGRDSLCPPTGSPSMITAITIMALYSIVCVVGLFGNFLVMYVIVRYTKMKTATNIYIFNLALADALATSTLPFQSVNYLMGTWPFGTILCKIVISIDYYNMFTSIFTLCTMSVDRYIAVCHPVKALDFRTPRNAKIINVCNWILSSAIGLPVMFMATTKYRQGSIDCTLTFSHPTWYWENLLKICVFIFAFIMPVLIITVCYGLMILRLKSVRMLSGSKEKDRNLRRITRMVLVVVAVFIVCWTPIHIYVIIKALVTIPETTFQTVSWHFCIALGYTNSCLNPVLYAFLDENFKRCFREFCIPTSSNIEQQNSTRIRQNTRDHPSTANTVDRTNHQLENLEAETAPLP

[26] = molecular target: 5-hydroxytryptamine receptor 2A (Mus musculus, UniProt P35363); type: functional, cell-based;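 also: CHO-K1 cells with tagged receptor and beta-arrestin; agonist potency measured as compound-induced activation of the receptor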
5-hydroxytryptamine receptor 2A, sequence (P35363 whole entry): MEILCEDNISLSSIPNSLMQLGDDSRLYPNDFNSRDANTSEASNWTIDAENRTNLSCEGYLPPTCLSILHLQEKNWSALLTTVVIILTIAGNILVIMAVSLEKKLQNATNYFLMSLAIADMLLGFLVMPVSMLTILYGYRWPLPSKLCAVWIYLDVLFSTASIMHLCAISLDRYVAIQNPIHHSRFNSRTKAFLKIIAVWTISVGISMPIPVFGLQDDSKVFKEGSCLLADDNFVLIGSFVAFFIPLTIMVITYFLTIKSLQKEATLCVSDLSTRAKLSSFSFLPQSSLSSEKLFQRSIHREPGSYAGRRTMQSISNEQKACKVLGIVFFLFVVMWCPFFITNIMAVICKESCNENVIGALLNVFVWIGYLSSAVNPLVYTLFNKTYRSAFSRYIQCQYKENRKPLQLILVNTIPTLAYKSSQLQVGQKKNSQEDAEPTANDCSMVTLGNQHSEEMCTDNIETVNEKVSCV

[27] = molecular target: T6, Small ubiquitin-related modifier 1 (Homo sapiens, UniProt P63165); experiment: inhibitors of SUMO1 peptide binding, dose response, biochemical, fluorescence polarization, uHTS hits (AID 624382); type: functional; details: read-out: IC50_Mean
T6 sequence (P63165 whole entry): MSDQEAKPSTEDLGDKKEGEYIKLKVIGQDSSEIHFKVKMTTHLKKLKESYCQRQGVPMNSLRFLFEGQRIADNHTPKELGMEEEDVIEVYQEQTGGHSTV

[28] = molecular target: T7, Corticotropin-releasing factor receptor 2/Corticotropin-releasing factor-binding protein (Homo sapiens, UniProt P24387+Q13324); experiment: activators of CRF receptor 2 with binding protein – uHTS hits, confirmation (AID 602473); type: functional; details: read-out: EC50_Mean
T7 sequence (Q13324 whole entry): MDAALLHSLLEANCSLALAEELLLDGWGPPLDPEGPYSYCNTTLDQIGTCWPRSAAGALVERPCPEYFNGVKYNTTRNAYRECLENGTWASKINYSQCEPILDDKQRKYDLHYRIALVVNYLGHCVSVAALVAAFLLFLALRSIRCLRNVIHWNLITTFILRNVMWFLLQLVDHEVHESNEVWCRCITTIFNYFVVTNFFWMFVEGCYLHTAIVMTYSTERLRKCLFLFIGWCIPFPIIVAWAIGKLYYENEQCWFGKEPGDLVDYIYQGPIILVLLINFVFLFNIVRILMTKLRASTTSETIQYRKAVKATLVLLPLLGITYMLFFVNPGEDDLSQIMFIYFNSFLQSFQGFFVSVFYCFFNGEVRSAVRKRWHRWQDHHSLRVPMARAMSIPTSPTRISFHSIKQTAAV
T7 sequence (P24387 whole entry): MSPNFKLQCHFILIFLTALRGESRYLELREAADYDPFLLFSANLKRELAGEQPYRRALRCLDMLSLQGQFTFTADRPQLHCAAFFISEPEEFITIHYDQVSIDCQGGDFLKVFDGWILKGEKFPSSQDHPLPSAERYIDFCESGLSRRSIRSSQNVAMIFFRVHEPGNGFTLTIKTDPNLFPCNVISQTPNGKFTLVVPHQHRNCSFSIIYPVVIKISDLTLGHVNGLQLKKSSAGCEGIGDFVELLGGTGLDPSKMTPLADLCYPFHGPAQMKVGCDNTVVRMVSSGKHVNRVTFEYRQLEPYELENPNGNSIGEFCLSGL

[29] = molecular target: T6, Small ubiquitin-related modifier 1; experiment: inhibitors of SUMO1 partner interactions, dose response, biochemical, FRET (AID 624383); type: functional; details: read-out: IC50_Mean
[30] = molecular target: T7, Corticotropin-releasing factor receptor 2/Corticotropin-releasing factor-binding protein; experiment: Dose Response confirmation of uHTS hits for small molecule antagonists of the CRF-binding protein and CRF-R2 receptor complex.; type: functional; details: read-out: IC50_Mean
[31] = molecular target: Genome polyprotein (dengue virus type 2, UniProt P29990); experiment: Dengue-2 NS5 methyltransferase inhibitors, primary screen, biochemical, confirmation dose response (AID 588689); type: functional
[32] = molecular target: T8, Small ubiquitin-related modifier 2 (Homo sapiens, UniProt P61956); experiment: inhibitors of SUMO2 protein-protein interaction, dose response, selectivity assay for SUMO1 interaction inhibitor project, biochemical, FRET, human SUMO2, uHTS hits (AID 624384); type: functional; details: read-out: IC50_Mean
T8 sequence (P61956 whole entry): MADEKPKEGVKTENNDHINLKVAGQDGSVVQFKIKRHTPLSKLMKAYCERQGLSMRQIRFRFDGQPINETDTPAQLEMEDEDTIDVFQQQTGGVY

[33] = molecular target: T8, Small ubiquitin-related modifier 2; experiment: SUMO2–SIM peptide binding inhibitors, dose response, selectivity assay for SUMO1 interaction inhibitor project, biochemical, fluorescence polarization, uHTS hits (AID 624385); type: functional; details: read-out: IC50_Mean
[34] = molecular target: T9, Low molecular weight phosphotyrosine protein phosphatase (Homo sapiens, UniProt P24666); type: functional; details: read-out: IC50_Mean
T9 sequence (P24666 whole entry): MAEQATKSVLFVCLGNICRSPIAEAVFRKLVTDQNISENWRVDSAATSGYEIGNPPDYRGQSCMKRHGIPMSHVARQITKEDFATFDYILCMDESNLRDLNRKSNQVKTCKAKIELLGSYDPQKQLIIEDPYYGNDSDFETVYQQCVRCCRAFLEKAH

[35] = molecular target: Prothrombin (Bos taurus, UniProt P00735); experiment: thrombin inhibition, dose response, biochemical, fluorescence polarization, uHTS hits (AID 602369); type: functional
[36] = molecular target: T9, Low molecular weight phosphotyrosine protein phosphatase; type: functional; details: read-out: IC50_Mean; remark: listed apart in the source
[37] = molecular target: T5, Beta-lactamase
[38] = molecular target: T4, Beta-lactamase
[39] = molecular target: T3, Beta Lactamase
[40] = molecular target: 26S proteasome non-ATPase regulatory subunit 14 (Homo sapiens, UniProt O00487); experiment: inhibition of proteasome subunit RPN11 – biochemical, fluorescence polarization, uHTS hits, confirmation (AID 602368); type: functional
26S proteasome non-ATPase regulatory subunit 14, sequence (O00487 whole entry): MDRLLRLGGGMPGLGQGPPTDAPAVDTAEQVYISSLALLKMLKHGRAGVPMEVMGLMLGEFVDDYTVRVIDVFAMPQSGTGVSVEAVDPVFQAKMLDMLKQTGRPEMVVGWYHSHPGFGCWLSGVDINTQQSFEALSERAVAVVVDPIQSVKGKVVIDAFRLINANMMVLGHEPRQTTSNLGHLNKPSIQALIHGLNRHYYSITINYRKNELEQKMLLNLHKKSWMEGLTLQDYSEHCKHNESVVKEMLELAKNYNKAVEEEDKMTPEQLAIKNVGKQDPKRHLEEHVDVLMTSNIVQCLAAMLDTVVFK

[41] = molecular target: 72 kDa type IV collagenase (Homo sapiens, UniProt P08253); experiment: Dose Response validation of uHTS RPN11 inhibitor hits using a MMP-2 Fluorescence assay.; type: functional

SMILES: OCCCCCN=c1cc(-c2ccccc2)oc2ccc(Cl)cc12
- EC50 [1]: 15.2 µM (active)
- EC50 [2]: > 10.1 µM (inactive)
- EC50 [3]: 8.23 µM (active)
- EC50 [4]: > 10.1 µM (inactive)
- IC50 [5]: 3.04 µM (active)
- EC50 [6]: 14.4 µM (active)

SMILES: Cc1nnc(N/N=C/c2ccc(-c3ccc(Br)cc3)o2)n1N
- AC50 [7]: 127 µM (active)
- IC50 [8]: 9.58 µM (active)

SMILES: O=C1Nc2ccccc2S/C1=C/Nc1cccc(Cl)c1
- EC50 [1]: > 120 µM (not active)
- AC50 [9]: > 52 µM (inactive)
- EC50 [3]: 32.5 µM (active)
- EC50 [10]: > 150 µM (not active)
- EC50 [11]: 6.87 µM (active)
- EC50 [12]: 17.9 µM (active)
- EC50 [6]: > 120 µM (not active)

SMILES: C[C@H](CO)N1C[C@H](C)[C@@H](CN(C)S(=O)(=O)c2cccc(F)c2)Oc2ncc(C#CC3CCCCC3)cc2C1=O
- AbsAC35 [13]: 44.29 µM
- AbsAC35 [14]: 324.37 µM

SMILES: O=C(c1ccco1)N1CCN(c2c3c(nc4cc(-c5cccc(F)c5)nn24)CCC3)CC1
- EC50 [15]: 7.76 µM (active)
- EC50 [16]: 6.31 µM (active)

SMILES: COc1ccc(CCNC(=O)C23CCC(C)(C(=O)C2Br)C3(C)C)cc1OC (centres undefined)
- AC50 [17]: 129 µM (active)

SMILES: COc1ccc(OC)c(C2C(C(=O)c3ccco3)=C(O)C(=O)N2Cc2cccnc2)c1 (centres undefined)
- IC50 [18]: 1.94 µM (active)
- IC50 [19]: 700 nM (active)
- IC50 [20]: > 59.6 µM (inactive)
- IC50 [21]: > 59.6 µM (inactive)
- IC50 [22]: > 59.6 µM (inactive)

SMILES: CC(C)(C)NC(=O)C(c1cc2ccccc2o1)n1c(=O)c(-c2ccco2)nc2ccccc21 (centres undefined)
- IC50 [23]: 1.86 µM (active)

SMILES: COc1ccccc1CNC(=O)C(CC(C)C)NC(=O)C1CCC(C)CC1 (centres undefined)
- IC50 [24]: 210 nM (active)

SMILES: Clc1ccccc1CN1CCN(c2ncccn2)CC1
- EC50 [25]: 92.5 µM (inactive)
- EC50 [26]: 407 nM (active)

SMILES: O=C(Nc1cc(C(=O)Nc2ccccc2C(=O)O)cc(C(=O)Nc2ccccc2C(=O)O)c1)c1ccccc1
- IC50 [27]: 1.19 µM (active)
- EC50 [28]: > 53 µM (inactive)
- IC50 [29]: 7.45 µM (active)
- IC50 [30]: > 47.1 µM (inactive)
- IC50 [31]: 12.7 µM (active)
- IC50 [32]: 10.7 µM (active)
- IC50 [33]: 4.03 µM (active)

SMILES: COc1ccc(C(=O)Nc2ccc(/C(C)=N/NC(=O)c3ccncc3)cc2)cc1
- IC50 [34]: > 80 µM (inactive)
- IC50 [35]: > 100 µM (inactive)
- IC50 [36]: 8.92 µM (active)
- IC50 [37]: > 59.6 µM (inactive)
- IC50 [38]: 10.9 µM (inactive)
- IC50 [39]: > 59.6 µM (inactive)
- IC50 [40]: 43 µM (active)
- IC50 [41]: > 100 µM (inactive)
